Columns and labels:
TYK2 = TYK2 (Homo sapiens (Human), UniProt P29597); assay: JAK Caliper enzyme assay at 1 mM ATP (TYK2); type: biochemical; conditions: recombinant human kinase domain, Caliper mobility shift
Description: (§1) Compounds of the invention were evaluated by in vitro methods to determine their respective ability to inhibit the JAK kinases (TYK2, JAK1, JAK2, JAK3).
(§2) The human JAK inhibitory activity was determined by using a microfluidic assay to monitor phosphorylation of a synthetic peptide by the recombinant human kinase domain of each of the four members of the JAK family, JAK1, JAK2, JAK3 and TYK2. […] Each assay condition was optimized for enzyme concentration and room temperature incubation time to obtain a conversion rate of 20% to 30% phosphorylated peptide product. Reactions were terminated by the addition of stop buffer containing EDTA. Utilizing the LabChip 3000 mobility shift technology (Caliper Life Science), each assay reaction was sampled to determine the level of phosphorylation. This technology is separation-based, allowing direct detection of fluorescently labeled substrates and products. Separations are controlled by a combination of vacuum pressure and electric field strength optimized for each peptide substrate.
(§3) JAK Caliper Enzyme Assay at 1 mM ATP
(§4) Compounds were added to a 384-well plate. Reaction mixtures contained 10 mM HEPES, pH 7.4, 10 mM MgCl2, 0.01% BSA, 0.0005% Tween 20, 1 mM ATP and 1 μM peptide substrate. […] The assays were initiated by the addition of 20 nM JAK1, 1 nM JAK2, 1 nM JAK or 1 nM TYK2 enzyme and were incubated at room temperature for three hours for JAK1, 60 minutes for JAK2, 75 minutes for JAK3 or 135 minutes for TYK2. Enzyme concentrations and incubation times were optimized for each new enzyme preps and were modified slightly over time to ensure 20% to 30% phosphorylation. The assays were stopped with 15 μL of 180 mM HEPES, pH 7.4, 20 mM EDTA, and 0.2% Coating Reagent 3. The assay plates were placed on a Caliper Life Science LC3000 instrument, and each well was sampled using appropriate separation conditions to measure the unphosphorylated and phosphorylated peptide.
(§5) The data was collected using the HTS Well Analyzer software from Caliper Life Sciences. The data output for data analysis is the percent product converted calculated on peak height (Equation 1). % product converted=100*((product)/(product+substrate)) Equation 1: […]
(§6) The percent effect at each compound concentration was calculated based on the positive and negative control well contained within each assay plate (Equation 2). […] The negative control wells contained DMSO alone (at the same concentration as the compound wells) that was used to set the baseline activity in the assay (i.e., uninhibited JAK1, JAK2, JAK3 or TYK2). % effect=100*((sample well−negative control)/(positive control-negative control)) Equation 2: The percent effect was plotted against the compound concentration compound.

JAK1 = JAK1 (Homo sapiens (Human), UniProt P23458); assay: JAK Caliper enzyme assay at 1 mM ATP (JAK1); type: biochemical; conditions: recombinant human kinase domain, Caliper mobility shift
Description: Compounds of the invention were evaluated by in vitro methods to determine their respective ability to inhibit the JAK kinases (TYK2, JAK1, JAK2, JAK3). The human JAK inhibitory activity was determined by using a microfluidic assay to monitor phosphorylation of a synthetic peptide by the recombinant human kinase domain of each of the four members of the JAK family, JAK1, JAK2, JAK3 and TYK2. […] Reactions were terminated by the addition of stop buffer containing EDTA. Utilizing the LabChip 3000 mobility shift technology (Caliper Life Science), each assay reaction was sampled to determine the level of phosphorylation. This technology is separation-based, allowing direct detection of fluorescently labeled substrates and products. Separations are controlled by a combination of vacuum pressure and electric field strength optimized for each peptide substrate. […] Compounds were added to a 384-well plate. […] Enzyme concentrations and incubation times were optimized for each new enzyme preps and were modified slightly over time to ensure 20% to 30% phosphorylation. […] The assay plates were placed on a Caliper Life Science LC3000 instrument, and each well was sampled using appropriate separation conditions to measure the unphosphorylated and phosphorylated peptide. The data was collected using the HTS Well Analyzer software from Caliper Life Sciences. […] The percent effect at each compound concentration was calculated based on the positive and negative control well contained within each assay plate (Equation 2). […] The percent effect was plotted against the compound concentration compound. […] Where max is the maximum asymptote (complete inhibition), min is the minimum asymptote (no inhibition) and s is the slope factor.

JAK2 = JAK2 (Homo sapiens (Human), UniProt O60674); assay: JAK Caliper enzyme assay at 1 mM ATP (JAK2); type: biochemical; conditions: recombinant human kinase domain, Caliper mobility shift
Description: as §1, §2, §3, §4, §5, §6

JAK3 = JAK3 (Homo sapiens (Human), UniProt P52333); assay: JAK Caliper enzyme assay at 1 mM ATP (JAK3); type: biochemical; conditions: recombinant human kinase domain, Caliper mobility shift
Description: as §1, §2, §3, §4, §5, §6

[1] = test system: IL-12 induced STAT4 phosphorylation (IL-12 signals through TYK2 and JAK2); assay: Human Whole Blood IL-12 Induced STAT4 Phosphorylation Assay; type: cell-based; conditions: Lymphocyte, IL-12 5 ng/mL, pSTAT4 in lymphocytes by flow cytometry, read-out: HWB IL-12 IC50
Description: Selected compounds were assessed for their ability to inhibit IL-12 signaling in a human whole blood flow cytometry assay. IL-12 signals through TYK2 and JAK2. Human Whole Blood IL-12 Induced STAT4 Phosphorylation Assay
Test articles were prepared as 30 mM stocks in DMSO. An 11-point 2.5 dilution series was created in DMSO with a top concentration of 10 mM. Further dilution was done by adding 4 μL of the above test article solutions into 96 μL of PBS with a top concentration of 400 μM. […] Blood was warmed to 37° C. prior to use. Human whole blood was aliquoted ([…]) in 96-well, deep-well, V-bottom plates and treated with compounds at 11 different concentrations (0.2% DMSO final) at 37° C. for 60 minutes. This was followed by a challenge with IL-12 ([…]; final, 5 ng/mL) for 15 minutes. Samples were treated with warm 1× Lyse/Fix buffer ([…]) to terminate activation and further incubated at 37° C. for 20 minutes to lyse red blood cells. Plates were centrifuged at 300×g for 5 minutes, supernatant was aspirated, and cells were washed with […] of staining buffer (PBS containing 0.5% fetal bovine serum and 0.01% sodium azide). The washed cell pellets were resuspended with […] of pre-chilled 90% methanol, and incubated at 4° C. for 30 minutes. Plates were centrifuged at 300×g for 5 minutes, supernatant containing 90% methanol was aspirated, and cells were washed with […]/well of staining buffer. Cell pellets were resuspended in staining buffer containing anti-pSTAT4-AlexaFluor647 (1 to 150 dilution, […]), and incubated at room temperature in the dark overnight.
Samples were transferred to 96-well U-bottom plates and flow cytometric analysis was performed on a FACSCalibur or LSRFortessa equipped with a HTS plate loader (BD Biosciences). The lymphocyte population was gated for histogram analysis of pSTAT4. Background fluorescence was defined using unstimulated cells and a gate was placed at the foot of the peak to include ˜0.5% gated population. The histogram statistical analysis was performed using CellQuestO Pro version 5.2.1 (BD Biosciences) or FACSDiva version 6.2 (BD Biosciences) software. Relative fluorescence unit (RFU), which measures the level of phospho STAT4, was calculated by multiplying the percent positive population and its mean fluorescence. Data from 11 compound concentrations (singlicate at each concentration) was normalized as a percentage of control based on the formula: % of Control=100×(A−B)/(C−B) where A is the RFU from wells containing compound and IL-12, B is the RFU from wells without IL-12 and compound (minimum fluorescence) and C is the RFU from wells containing only IL-12 (maximum fluorescence). Inhibition curves and IC50 values were determined using the Prism version 5 software (GraphPad, La Jolla, Calif.).

TYK2, sequence (P29597 897-1176): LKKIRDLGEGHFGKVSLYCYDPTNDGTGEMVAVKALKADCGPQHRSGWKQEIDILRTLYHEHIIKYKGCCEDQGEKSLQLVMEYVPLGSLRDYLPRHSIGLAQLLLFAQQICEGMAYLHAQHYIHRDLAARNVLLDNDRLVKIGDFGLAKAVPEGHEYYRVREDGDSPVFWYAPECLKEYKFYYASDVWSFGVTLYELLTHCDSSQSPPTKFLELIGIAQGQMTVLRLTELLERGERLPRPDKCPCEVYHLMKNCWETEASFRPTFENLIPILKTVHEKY
JAK2, sequence (O60674 849-1124): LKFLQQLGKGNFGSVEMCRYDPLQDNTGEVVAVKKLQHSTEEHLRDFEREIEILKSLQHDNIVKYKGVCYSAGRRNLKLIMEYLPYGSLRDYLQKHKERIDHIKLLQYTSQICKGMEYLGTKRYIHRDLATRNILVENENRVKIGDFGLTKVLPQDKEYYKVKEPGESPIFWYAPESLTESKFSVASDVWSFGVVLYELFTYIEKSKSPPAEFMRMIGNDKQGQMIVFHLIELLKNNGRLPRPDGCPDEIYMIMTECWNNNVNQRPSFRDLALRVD
JAK3, sequence (P52333 822-1111): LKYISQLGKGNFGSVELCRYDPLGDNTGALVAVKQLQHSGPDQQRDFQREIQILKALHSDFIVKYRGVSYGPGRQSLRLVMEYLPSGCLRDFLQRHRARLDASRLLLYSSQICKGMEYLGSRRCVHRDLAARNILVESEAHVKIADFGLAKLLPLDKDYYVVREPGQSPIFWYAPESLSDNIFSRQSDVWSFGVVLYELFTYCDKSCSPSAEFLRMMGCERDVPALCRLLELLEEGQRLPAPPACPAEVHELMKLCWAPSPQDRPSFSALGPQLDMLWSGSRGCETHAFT
JAK1, sequence (P23458 875-1153): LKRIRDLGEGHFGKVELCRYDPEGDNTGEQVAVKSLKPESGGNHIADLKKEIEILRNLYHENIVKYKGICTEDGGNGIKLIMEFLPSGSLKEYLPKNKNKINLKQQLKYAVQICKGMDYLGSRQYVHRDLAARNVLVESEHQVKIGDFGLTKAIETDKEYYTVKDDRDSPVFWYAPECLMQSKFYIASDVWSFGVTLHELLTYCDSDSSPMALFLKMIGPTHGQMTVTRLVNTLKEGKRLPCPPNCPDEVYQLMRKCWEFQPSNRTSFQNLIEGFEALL

| SMILES | IC50 (TYK2) [nM] | IC50 (JAK1) [nM] | IC50 (JAK2) [nM] | IC50 (JAK3) [nM] | IC50 [1] [nM] |
| --- | --- | --- | --- | --- | --- |
| CO[C@H]1C[C@@](CC#N)(n2cc(-c3nc(-c4cc(CO)[nH]n4)cn4nccc34)cn2)C1 [Example 27, 2-((1 s,3r)-1-(4-(6-(5-(Hydroxymethyl)-1H-pyrazol-3-yl)pyrazolo[1,5-a]pyrazin-4-yl)-1H-pyrazol-1-yl)-3-methoxycyclobutyl)acetonitrile] | 24 | 737 | 171 | > 10000 | 86 |
| CO[C@H]1C[C@@](CC#N)(n2cc(-c3nc(-c4cc(C(N)=O)n[nH]4)cn4nccc34)cn2)C1 [Example 32] | 17 | 2250 | 339 | > 10000 | 130 |
| Cc1cnn2cc(-c3cnn(C)c3)nc(-c3cnn([C@]4(CC#N)C[C@@H](C#N)C4)c3)c12 [Example 25, (1r,3r)-3-(Cyanomethyl)-3-(4-(3-methyl-6-(1-methyl-1H-pyrazol-4-yl)pyrazolo[1,5-a]pyrazin-4-yl)-1H-pyrazol-1-yl)cyclobutane-1-carbonitrile] | 23 | 319 | 99 | > 10000 | 59 |

Stronger by IC50 (TYK2), values ahead:

| IC50 (TYK2) [nM] | IC50 (JAK1) [nM] | IC50 (JAK2) [nM] | IC50 (JAK3) [nM] | IC50 [1] [nM] | SMILES |
| --- | --- | --- | --- | --- | --- |
| 7 | 250 | 37 | 6680 | 41 | Cn1cc(-c2cn3nccc3c(-c3cnn(C4(CC#N)CN(CC#N)C4)c3)n2)cn1 [Example 7, 2,2′-(3-(4-(6-(1-Methyl-1H-pyrazol-4-yl)pyrazolo[1,5-a]pyrazin-4-yl)-1H-pyrazol-1-yl)azetidine-1,3-diyl)diacetonitrile] |
| 7 | 174 | 71 | > 10000 | 46 | CO[C@H]1C[C@](CC#N)(n2cc(-c3nc(-c4cc(N)[nH]n4)cn4nccc34)cn2)C1 [Example 30, 2-((1r,3s)-1-(4-(6-(3-Amino-1H-pyrazol-5-yl)pyrazolo[1,5-a]pyrazin-4-yl)-1H-pyrazol-1-yl)-3-methoxycyclobutyl)acetonitrile] |

Reference: patent US10144738B2, “Pyrazolo[1,5-A]PYRAZIN-4-YL derivatives” (Pfizer Inc., priority 2016, dated 2018)
